The subject of assay [1] is Human MSCs. Briefly: Flow cytometry surface staining (CD34, CD45, CD43, CD133) of MSCs undergoing hematopoietic transdetermination. The format is cell-based. The text has this: The following antibodies were used for flow cytometry and western blotting experiments respectively: mouse anti-human CD34-APC (130-046-703, Miltenyi), mouse anti-human CD45-FITC (130-080-202, Miltenyi), mouse anti-human CD133/2 (293C3)-PE (130-090-853, Miltenyi), mouse anti-human CD43-FITC (560978, BD biosciences), mouse APC isotype control (555751, BD biosciences), mouse FITC isotype control (555748, BD biosciences), The TGFβRI SB431542 (S4317, Sigma-Aldrich) and MEK/ERK U0126 (U120, Sigma-Aldrich) inhibitors were diluted in DMSO accordingly to the manufacturers' instruction and used at a final concentration of 25 and 10 μM respectively during the duration of the experiments with media changes every second day unless otherwise stated. Equal concentration of the solvent alone was used as a negative control.
Human OE-MSC and MSC-AT cells (passage 7) were infected (day 0) with pMX-based retroviruses by spinfection of the cells at 1850 rpm for 1 hour in the presence of polybrene (4 μg/ml). Cells were maintained in the retroviruses-containing media for 12 hours and then the media was removed and replaced by the cell-specific culture medium. Twenty four hours after the first infection (day 1), a second round of infection was performed. The day after (day 2), cells were maintained in their respective media for 24 hours before being switched to a Wicell media containing DMEM/F12 (Invitrogen) supplemented with 20% Knockout Serum Replacement (Invitrogen), 1 mM L-glutamine, 0.1 mM non-essential aminoacids, […] β-mercaptoethanol and 10 ng/ml bFGF.
Human MSCs undergoing hematopoietic transdetermination were harvested at the indicated time points. Cells were washed once with PBS and further incubated with the corresponding antibodies in the presence of FACS blocking buffer (1×PBS/10% FCS) for 1 hour on ice in the absence of light. After incubation, cells were washed three times with 1 ml FACS blocking buffer and resuspended in a total volume of 200 μl prior to analysis. A minimum of 10,000 living cells were analyzed.
2.5 μg of recombinant human Sox2-TAT (110-03T, Peprotech) was added to the culture media every 12 hours prior to analysis of transdetermination.

In assay [2] the test system is CD34+ OE-MSC-derived cells. Briefly: Hematopoietic colony forming assays. Type of assay: cell-based, human. Conditions: CD34+ cells accumulated during chronic inhibition of TGFβ. How it is done: Hematopoietic clonogenic assays were performed in 35-mm low adherent plastic dishes (Stem Cell Technologies, Vancouver, BC, Canada) using 1.1 ml/dish of methylcellulose semisolid medium (MethoCult H4434 classic, Stem Cell Technologies) according to the manufacturer's instructions. Briefly, enriched CD34+ OE-MSC-derived cells were sorted and immediately plated at various densities: 1.5×10^3/ml, 3×10^3/ml and 6×10^3/ml. All assays were performed in duplicate. Colony-forming units (CFU) and Burst-forming units (BFU) were scored after 7 to 14 days of incubation according to their colony morphology as erythroid (CFU-E and BFU-E), granulocyte, erythroid, macrophage, megakaryocyte (CFU-GEMM), granulocyte-macrophage (CFU-GM), and macrophage (CFU-M).

Assay [3] has as its system Human MSCs. In words: Western blotting of tyrosine phosphorylation of cellular proteins. The format is cell-based. Conditions: TGF beta inhibition added to standard transgeneration conditions. The text has this:
TGF signaling involves a series of serine/threonine phosphorylation events, and its regulation is related to the activity of the MAPK-MEK-ERK pathway, a receptor tyrosine kinase (RTK) activated pathway. Thus, in order to address potential crosstalk involving tyrosine phosphorylation-dependent pathways Applicants investigated the effect of Applicants' different protocols on tyrosine phosphorylation of multiple cellular proteins by western blotting.

Assay [4] relates to Human MSCs. Briefly: Real time PCR (RT-PCR) analysis of hematopoietic and pluripotency marker mRNA. Type of assay: cell-based. How it is done:
Total RNA was isolated using Trizol Reagent (Invitrogen) according to the manufacturer's recommendations. 1 μg of DNAse1 (invitrogen) treated total RNA was used for cDNA synthesis using the SuperScript II Reverse Transcriptase kit for RT-PCR (Invitrogen). Real-time PCR was performed using the SYBR-Green PCR Master mix (Applied Biosystems). The levels of expression of respective genes were normalized to corresponding GAPDH values and are shown as fold change relative to the value of the control sample. All the samples were done in triplicate. The sequences correspond to SEQ ID NOs:7-68, and are listed in order, i.e., SEQ ID NO:7 (OCT4 endogenous 5′ oligo), SEQ ID NO:8 (OCT4 endogenous 3′oligo), SEQ ID NO:9 (NANOG 5′ oligo), etc.

The structures appear in SMILES notation.

Turning to `N#CC(=C(/N)Sc1ccccc1N)/C(C#N)=C(\N)Sc1ccccc1N` [U0126], in the assay on Human MSCs [1] (chronic inhibition of ERK alone, no ectopic Sox2, 10 μM), the “early CD34+ progenitors” value is “up to 35%”.

As to `NC(=O)c1ccc(-c2nc(-c3ccc4c(c3)OCO4)c(-c3ccccn3)[nH]2)cc1` [SB431542], the “multilineage potential of sorted CD34+ cells” value in assay [2] was “retain multilineage potential”. In addition, the “tyrosine phosphorylation of cellular proteins” value in the assay on Human MSCs [3] was “further enhances”. Further, in the assay on Human MSCs [1] (Sox2 transduction in combination with TGFβRI inhibitor (FIG. 4C)), the “generation of CD34+ cells” value is listed as “does not impair”. In addition, the “newly generated CD45+ cells” value with Human MSCs [1] (Sox2 transduction in combination with TGFβRI inhibitor, days 2-8 (FIG. 4D)) is reported as “significant reduction”. The “generation of CD34+CD45+ and CD45+ cell populations” value in the assay on Human MSCs [1] (in combination with Sox2 transduction, 4 days of transdetermination (FIG. 5E)) is recorded as “significantly abolishes”. In the assay on Human MSCs [1] (inhibition of the TGF beta pathway alone during ten days, compared to DMSO control, 25 μM), the “CD34+CD45+ cells” value is “around 10%”. The “CD34+ cells” value with Human MSCs [1] (inhibition of the TGFβ pathway, no Sox2 transduction, 25 μM) was 10-25%; with Human MSCs [1] (long-term inhibition of TGF beta pathway during a one month period in culture, compared to standard protocol) it was “up to 75%”. In addition, the “endogenous Sox2 and Oct4 expression” value with Human MSCs [4] (chronic inhibition of TGFβ signaling alone (FIG. 4B)) is “sufficient to upregulate”. In addition, the “HPC-related markers at the mRNA level” value in the assay on Human MSCs [4] (chronic inhibition of TGFβ signaling alone, days 2-7 (FIG. 5C)) is reported as “significant upregulation”. Further, the “early hematopoietic markers GATA2, Runx1, CD43 and CD41” value in the assay on Human MSCs [4] (inhibition of TGF signaling) is recorded as “downregulation”. Besides, the “endogenous Sox2 expression” value in the assay with Human MSCs [4] (inhibition of TGF signaling (Example 9)) was “downregulation”.

The values are drawn from patent publication US20130309209A1, “FORMATION OF HEMATOPOIETIC PROGENITOR CELLS FROM MESENCHYMAL STEM CELLS” (Center for Regenerative Medicine of Barcelona, priority 2010, published 2013).
